Reference: patent US20230257396A1, “MACROCYCLES AND THEIR USE” (BLOSSOMHILL THERAPEUTICS, INC., priority 2020, published 2023)

Experiments:
Test in all cases: KINOMEscan kinase binding assay (Eurofins/DiscoveRx), % Ctrl
[1] = target: T1, kinases (Homo sapiens, UniProt P00519, E255K); conditions: target ABL1(E255K)-phosphorylated; 1 μM
T1 construct: purchased Eurofins/DiscoveRx; host or cells: E. coli BL21-derived host (T7 phage display) for most kinases; HEK-293 for the rest
Method in brief: (§1)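 Read-out is qPCR of kinase eluted from ligand-coated streptavidin beads after 1 h room-temperature competition with test compound. Values are % Ctrl at the tested concentration, lower meaning tighter binding.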

[2] = target: T2, kinases (Homo sapiens, UniProt P09619); conditions: target PDGFRB; 1 μM
T2 construct: purchased Eurofins/DiscoveRx; host or cells: E. coli BL21-derived host (T7 phage display) for most kinases; HEK-293 for the rest
T2 sequence (P09619 33-1106): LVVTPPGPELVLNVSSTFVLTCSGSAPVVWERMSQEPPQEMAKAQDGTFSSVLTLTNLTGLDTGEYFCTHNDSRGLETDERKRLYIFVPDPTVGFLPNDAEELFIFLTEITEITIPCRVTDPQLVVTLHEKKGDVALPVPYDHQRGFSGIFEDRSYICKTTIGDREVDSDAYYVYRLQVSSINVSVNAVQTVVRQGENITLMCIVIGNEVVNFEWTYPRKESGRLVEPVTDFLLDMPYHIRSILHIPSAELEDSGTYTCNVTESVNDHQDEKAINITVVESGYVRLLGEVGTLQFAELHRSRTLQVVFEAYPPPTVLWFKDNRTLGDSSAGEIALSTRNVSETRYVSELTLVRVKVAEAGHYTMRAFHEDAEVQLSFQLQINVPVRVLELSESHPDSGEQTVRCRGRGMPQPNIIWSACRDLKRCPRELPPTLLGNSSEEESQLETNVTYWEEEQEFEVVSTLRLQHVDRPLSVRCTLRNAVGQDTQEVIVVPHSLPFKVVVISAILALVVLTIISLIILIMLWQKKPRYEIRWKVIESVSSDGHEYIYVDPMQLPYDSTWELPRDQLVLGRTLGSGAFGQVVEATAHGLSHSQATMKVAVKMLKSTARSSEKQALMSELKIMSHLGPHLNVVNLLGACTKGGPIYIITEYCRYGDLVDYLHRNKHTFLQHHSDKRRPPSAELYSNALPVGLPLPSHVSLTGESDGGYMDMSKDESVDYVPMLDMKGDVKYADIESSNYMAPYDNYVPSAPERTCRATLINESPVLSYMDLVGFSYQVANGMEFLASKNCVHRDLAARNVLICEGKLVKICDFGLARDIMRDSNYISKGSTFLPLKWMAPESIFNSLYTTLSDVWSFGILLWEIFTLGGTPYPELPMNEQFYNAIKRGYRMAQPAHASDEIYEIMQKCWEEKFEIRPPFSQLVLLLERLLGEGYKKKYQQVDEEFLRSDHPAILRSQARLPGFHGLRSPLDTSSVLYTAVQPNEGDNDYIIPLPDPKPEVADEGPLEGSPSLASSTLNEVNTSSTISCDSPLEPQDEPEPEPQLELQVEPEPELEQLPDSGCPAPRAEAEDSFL
Method in brief: as §1

[3] = target: T3, kinases (Homo sapiens, UniProt P00533, G719S); conditions: target EGFR(G719S); 1 μM
T3 construct: purchased Eurofins/DiscoveRx; host or cells: E. coli BL21-derived host (T7 phage display) for most kinases; HEK-293 for the rest
Method in brief: as §1

[4] = target: T4, kinases (Homo sapiens, UniProt P36888, D835Y); conditions: target FLT3(D835Y); 1 μM
T4 construct: purchased Eurofins/DiscoveRx; host or cells: E. coli BL21-derived host (T7 phage display) for most kinases; HEK-293 for the rest
T4 sequence (P36888 27-993 D835Y): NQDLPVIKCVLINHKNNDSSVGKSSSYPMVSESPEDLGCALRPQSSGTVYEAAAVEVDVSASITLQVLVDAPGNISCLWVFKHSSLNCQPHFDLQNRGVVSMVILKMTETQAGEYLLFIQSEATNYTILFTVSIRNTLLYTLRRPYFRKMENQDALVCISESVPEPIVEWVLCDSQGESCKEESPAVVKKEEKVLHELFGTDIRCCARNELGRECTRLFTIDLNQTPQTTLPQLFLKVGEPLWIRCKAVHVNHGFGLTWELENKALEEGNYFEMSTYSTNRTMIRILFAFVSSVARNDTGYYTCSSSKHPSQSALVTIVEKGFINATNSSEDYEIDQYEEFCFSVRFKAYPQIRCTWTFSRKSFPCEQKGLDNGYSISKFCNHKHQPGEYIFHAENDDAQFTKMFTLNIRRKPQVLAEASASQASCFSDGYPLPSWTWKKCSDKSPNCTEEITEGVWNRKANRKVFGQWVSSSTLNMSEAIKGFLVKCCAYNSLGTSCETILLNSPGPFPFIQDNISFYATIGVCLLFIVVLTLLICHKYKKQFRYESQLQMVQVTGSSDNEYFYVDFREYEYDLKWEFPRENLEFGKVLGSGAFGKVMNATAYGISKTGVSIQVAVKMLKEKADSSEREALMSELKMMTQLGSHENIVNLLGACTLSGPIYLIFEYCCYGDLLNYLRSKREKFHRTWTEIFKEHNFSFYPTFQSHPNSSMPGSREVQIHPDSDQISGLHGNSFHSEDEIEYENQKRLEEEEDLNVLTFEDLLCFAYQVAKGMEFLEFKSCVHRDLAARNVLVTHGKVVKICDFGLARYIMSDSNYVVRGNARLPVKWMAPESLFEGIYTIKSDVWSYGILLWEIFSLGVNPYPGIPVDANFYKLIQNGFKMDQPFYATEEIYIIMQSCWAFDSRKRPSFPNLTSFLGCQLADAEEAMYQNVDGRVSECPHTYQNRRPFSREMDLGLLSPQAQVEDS
Method in brief: as §1

[5] = target: T5, kinases (Homo sapiens, UniProt P10721, D816H); conditions: target KIT(D816H); 1 μM
T5 construct: purchased Eurofins/DiscoveRx; host or cells: E. coli BL21-derived host (T7 phage display) for most kinases; HEK-293 for the rest
T5 sequence (P10721 26-976 D816H): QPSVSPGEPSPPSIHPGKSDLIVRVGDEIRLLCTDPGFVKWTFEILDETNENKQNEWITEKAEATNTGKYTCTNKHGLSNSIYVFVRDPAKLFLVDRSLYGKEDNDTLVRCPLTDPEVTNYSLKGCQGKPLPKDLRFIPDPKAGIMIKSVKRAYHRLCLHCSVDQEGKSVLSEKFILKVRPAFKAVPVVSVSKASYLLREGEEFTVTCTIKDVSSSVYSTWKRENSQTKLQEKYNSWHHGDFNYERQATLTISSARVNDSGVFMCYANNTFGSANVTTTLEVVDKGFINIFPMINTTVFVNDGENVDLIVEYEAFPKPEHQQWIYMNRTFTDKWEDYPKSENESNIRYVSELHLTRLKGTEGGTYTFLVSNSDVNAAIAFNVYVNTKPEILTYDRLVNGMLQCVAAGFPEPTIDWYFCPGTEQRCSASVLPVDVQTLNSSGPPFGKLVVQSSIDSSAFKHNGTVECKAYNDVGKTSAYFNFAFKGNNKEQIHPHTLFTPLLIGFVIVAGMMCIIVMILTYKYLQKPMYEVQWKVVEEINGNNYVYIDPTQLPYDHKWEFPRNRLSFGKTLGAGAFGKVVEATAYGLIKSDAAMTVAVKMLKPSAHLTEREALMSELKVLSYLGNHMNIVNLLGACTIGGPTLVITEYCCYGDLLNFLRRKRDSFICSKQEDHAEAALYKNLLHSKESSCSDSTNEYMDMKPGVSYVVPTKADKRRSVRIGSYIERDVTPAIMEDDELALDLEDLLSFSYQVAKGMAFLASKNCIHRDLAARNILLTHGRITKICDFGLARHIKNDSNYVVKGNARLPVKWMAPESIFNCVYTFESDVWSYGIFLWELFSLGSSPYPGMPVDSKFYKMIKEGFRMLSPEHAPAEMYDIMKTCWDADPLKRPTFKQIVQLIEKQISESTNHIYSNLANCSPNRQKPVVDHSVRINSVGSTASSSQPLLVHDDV
Method in brief: as §1

[6] = target: T6, kinases (Homo sapiens, UniProt P07949); conditions: target RET; 1 μM
T6 construct: purchased Eurofins/DiscoveRx; host or cells: E. coli BL21-derived host (T7 phage display) for most kinases; HEK-293 for the rest
T6 sequence (P07949 29-1114): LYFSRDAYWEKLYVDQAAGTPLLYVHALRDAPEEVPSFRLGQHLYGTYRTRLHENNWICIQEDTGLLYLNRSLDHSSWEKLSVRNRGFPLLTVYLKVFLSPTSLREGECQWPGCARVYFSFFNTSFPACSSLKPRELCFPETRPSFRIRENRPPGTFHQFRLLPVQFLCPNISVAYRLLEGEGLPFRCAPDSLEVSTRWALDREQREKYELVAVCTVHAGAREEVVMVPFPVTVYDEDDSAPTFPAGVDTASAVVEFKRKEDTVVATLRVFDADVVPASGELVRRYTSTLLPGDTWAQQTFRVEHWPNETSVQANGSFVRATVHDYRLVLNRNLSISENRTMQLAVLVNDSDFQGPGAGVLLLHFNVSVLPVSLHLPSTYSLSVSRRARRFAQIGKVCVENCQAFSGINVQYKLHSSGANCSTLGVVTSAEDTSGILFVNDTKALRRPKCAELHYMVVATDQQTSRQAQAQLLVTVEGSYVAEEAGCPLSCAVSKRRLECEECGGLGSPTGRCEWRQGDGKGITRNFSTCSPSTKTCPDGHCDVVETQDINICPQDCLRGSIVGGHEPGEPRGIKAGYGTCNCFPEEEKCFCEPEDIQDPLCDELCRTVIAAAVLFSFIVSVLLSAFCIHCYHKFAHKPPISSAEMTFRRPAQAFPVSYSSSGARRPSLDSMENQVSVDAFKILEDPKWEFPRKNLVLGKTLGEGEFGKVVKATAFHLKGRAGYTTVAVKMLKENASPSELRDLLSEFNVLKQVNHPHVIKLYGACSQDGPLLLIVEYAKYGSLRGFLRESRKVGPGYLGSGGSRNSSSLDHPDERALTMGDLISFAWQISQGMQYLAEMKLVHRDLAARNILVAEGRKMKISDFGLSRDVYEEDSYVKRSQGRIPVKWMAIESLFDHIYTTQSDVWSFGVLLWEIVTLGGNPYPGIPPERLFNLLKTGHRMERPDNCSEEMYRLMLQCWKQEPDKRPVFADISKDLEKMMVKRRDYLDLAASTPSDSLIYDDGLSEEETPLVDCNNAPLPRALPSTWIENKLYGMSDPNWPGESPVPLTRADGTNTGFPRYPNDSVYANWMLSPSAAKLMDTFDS
Method in brief: as §1

[7] = target: T7, kinases (Homo sapiens, UniProt P00533, L858R); conditions: target EGFR(L858R); 1 μM
T7 construct: purchased Eurofins/DiscoveRx; host or cells: E. coli BL21-derived host (T7 phage display) for most kinases; HEK-293 for the rest
Method in brief: as §1

[8] = target: T8, kinases (Homo sapiens, UniProt P00519, F317I); conditions: 1 μM
T8 construct: purchased Eurofins/DiscoveRx; host or cells: E. coli BL21-derived host (T7 phage display) for most kinases; HEK-293 for the rest
Method in brief: as §1

[9] = target: T9, kinases (Homo sapiens, UniProt P00519, H396P); conditions: 1 μM
T9 construct: purchased Eurofins/DiscoveRx; host or cells: E. coli BL21-derived host (T7 phage display) for most kinases; HEK-293 for the rest
Method in brief: as §1

[10] = target: T10, kinases (Homo sapiens, UniProt P00519, T315I); conditions: 1 μM
T10 construct: purchased Eurofins/DiscoveRx; host or cells: E. coli BL21-derived host (T7 phage display) for most kinases; HEK-293 for the rest
Method in brief: as §1

[11] = target: T11, kinases (Homo sapiens, UniProt P00533, DEL752-759); conditions: target EGFR(S752-I759del); 1 μM
T11 construct: purchased Eurofins/DiscoveRx; host or cells: E. coli BL21-derived host (T7 phage display) for most kinases; HEK-293 for the rest
Method in brief: as §1

[12] = target: T12, kinases (Homo sapiens, UniProt P16234); conditions: target PDGFRA; 1 μM
T12 construct: purchased Eurofins/DiscoveRx; host or cells: E. coli BL21-derived host (T7 phage display) for most kinases; HEK-293 for the rest
T12 sequence (P16234 24-1089): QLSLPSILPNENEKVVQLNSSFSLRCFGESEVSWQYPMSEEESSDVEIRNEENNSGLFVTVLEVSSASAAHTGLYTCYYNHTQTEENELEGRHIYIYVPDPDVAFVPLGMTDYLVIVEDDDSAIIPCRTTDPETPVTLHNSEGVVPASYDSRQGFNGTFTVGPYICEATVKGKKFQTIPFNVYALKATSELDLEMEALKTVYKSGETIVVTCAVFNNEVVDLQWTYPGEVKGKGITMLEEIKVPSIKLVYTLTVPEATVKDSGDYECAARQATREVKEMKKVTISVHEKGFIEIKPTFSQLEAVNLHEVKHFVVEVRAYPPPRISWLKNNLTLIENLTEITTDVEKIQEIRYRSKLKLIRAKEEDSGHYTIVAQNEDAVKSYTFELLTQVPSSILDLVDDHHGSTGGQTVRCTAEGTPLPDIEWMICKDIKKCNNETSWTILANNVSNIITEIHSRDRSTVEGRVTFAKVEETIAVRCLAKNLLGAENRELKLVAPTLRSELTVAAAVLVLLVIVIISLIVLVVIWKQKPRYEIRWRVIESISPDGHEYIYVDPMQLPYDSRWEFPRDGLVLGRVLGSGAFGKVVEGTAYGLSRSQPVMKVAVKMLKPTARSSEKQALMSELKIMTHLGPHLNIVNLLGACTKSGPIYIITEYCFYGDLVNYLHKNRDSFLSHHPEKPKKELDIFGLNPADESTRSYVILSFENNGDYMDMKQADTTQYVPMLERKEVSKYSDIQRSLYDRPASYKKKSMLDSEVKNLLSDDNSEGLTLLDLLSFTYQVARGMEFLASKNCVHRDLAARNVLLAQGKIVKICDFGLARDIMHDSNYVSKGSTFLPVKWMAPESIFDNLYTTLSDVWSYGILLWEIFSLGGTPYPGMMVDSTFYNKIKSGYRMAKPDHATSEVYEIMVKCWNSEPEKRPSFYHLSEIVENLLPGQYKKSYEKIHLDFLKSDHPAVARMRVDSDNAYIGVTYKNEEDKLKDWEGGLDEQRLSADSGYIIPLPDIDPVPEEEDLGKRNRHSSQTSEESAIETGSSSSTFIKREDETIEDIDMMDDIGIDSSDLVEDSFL
Method in brief: as §1

[13] = target: T13, kinases (Homo sapiens, UniProt P07949, M918T); conditions: target RET(M918T); 1 μM
T13 construct: purchased Eurofins/DiscoveRx; host or cells: E. coli BL21-derived host (T7 phage display) for most kinases; HEK-293 for the rest
T13 sequence (P07949 29-1114 M918T): as the sequence (P07949 29-1114) above, with M890T counted along it
Method in brief: as §1

[14] = target: T14, kinases (Homo sapiens, UniProt P10721, V559D); conditions: target KIT(V559D); 1 μM
T14 construct: purchased Eurofins/DiscoveRx; host or cells: E. coli BL21-derived host (T7 phage display) for most kinases; HEK-293 for the rest
T14 sequence (P10721 26-976 V559D): as the sequence (P10721 26-976 D816H) above, with V534D, H791D counted along it
Method in brief: as §1

[15] = target: T15, kinases (Homo sapiens, UniProt P10721, L576P); conditions: target KIT(L576P); 1 μM
T15 construct: purchased Eurofins/DiscoveRx; host or cells: E. coli BL21-derived host (T7 phage display) for most kinases; HEK-293 for the rest
T15 sequence (P10721 26-976 L576P): as the sequence (P10721 26-976 D816H) above, with L551P, H791D counted along it
Method in brief: as §1

CN1CCSCCOc2cc3c(cc2Cl)NC(=O)/C3=C\c2[nH]ccc2C1=O [Ex. 153]
% Ctrl, ABL1(E255K)-phosphorylated [1]: 8.4 % Ctrl
% Ctrl, PDGFRB [2]: 0.5 % Ctrl
% Ctrl, EGFR(G719S) [3]: 45 % Ctrl
% Ctrl, FLT3(D835Y) [4]: 1.7 % Ctrl
% Ctrl, KIT(D816H) [5]: 27 % Ctrl
% Ctrl, RET [6]: 2.4 % Ctrl
% Ctrl, EGFR(L858R) [7]: 86 % Ctrl
% Ctrl, ABL1(F317I)-nonphosphorylated ([8]; target ABL1(F317I)-nonphosphorylated): 20 % Ctrl
% Ctrl, ABL1(F317I)-phosphorylated ([8]; target ABL1(F317I)-phosphorylated): 37 % Ctrl
% Ctrl, ABL1(H396P)-nonphosphorylated ([9]; target ABL1(H396P)-nonphosphorylated): 0.8 % Ctrl
% Ctrl, ABL1(H396P)-phosphorylated ([9]; target ABL1(H396P)-phosphorylated): 16 % Ctrl
% Ctrl, ABL1(T315I)-nonphosphorylated ([10]; target ABL1(T315I)-nonphosphorylated): 17 % Ctrl
% Ctrl, ABL1(T315I)-phosphorylated ([10]; target ABL1(T315I)-phosphorylated): 25 % Ctrl
% Ctrl, EGFR(S752-I759del) [11]: 100 % Ctrl
% Ctrl, PDGFRA [12]: 9.1 % Ctrl
% Ctrl, RET(M918T) [13]: 1 % Ctrl
% Ctrl, KIT(V559D) [14]: 0.3 % Ctrl
% Ctrl, KIT(L576P) [15]: 0.1 % Ctrl
